Each structure is given as a SMILES string. Read-outs that look alike come from different tables or passages of the source. Bounds are passed on as bounds.

Data set [1] can be described thus: 3-HIB assay in vitro, direct MS assay of conditioned media. The data set is classed as cell-based, human. The following applies: GM00371 cells, read-out: 3HIB INHIBITION IC50 (μM) MEAN GM00371 cells Direct MS Assay. On the procedure:
Cell Plating: Cells (Coriell Institute GM00371 cells) were plated (96-well clear bottom sterile plate; Greiner 655098) at 10,000 cells/0.1 mL in Eagle's minimum essential medium (EMEM)/15% FBS (Gibco 16000-044) with a Combi dispenser in a cell culture hood and incubated at 37° C. and 5% CO2 overnight.
Compound Dilution: Compound were prepared as 33.3× intermediate dilution in DMSO in 96 well round polystyrene plates. For 30 μM final maximum start with 30 μL of 10 mM in DMSO. 10-12 1:3 serial dilutions were prepared from left to right (20 μL+40 μL DMSO). A 10× secondary dilution was prepare in EMEM by taking 7.5 μL 33.3× and transfer to replicate 96 well round polystyrene plates and then adding 242.5 μL EMEM A 1× final dilution in EMEM was prepared by taking 50 μL 10× dilution and transferring to replicate 96 well polypropylene assay block (Costar 3956) and adding 450 μL EMEM A control was prepared for maximal compound inhibition by taking 20 μL 10 mM Reference Compound A and adding 40 μL DMSO for a concentration of 3.3 mM To 7.5 μL of the 3.3 mM Reference Compound A solution and added 242.5 μL EMEM to make a 100 μM solution. The subsequent Reference Compound A solution was diluted with EMEM to achieve a final concentration of 10 μM. The structure of Reference Compound A is:
A control was prepared for maximal compound toxicity by taking 7.5 μL Reference Compound B and 242.5 μL EMEM to make […]. 50 μL of that 100 μM Reference Compound B solution was combined with 450 μL EMEM to achieve a concentration of 30 μM. The structure of Reference Compound B is
A DMSO Control was prepared by dilution 7.5 μL with 242.5 μL EMEM and taking 50 μL of the subsequent solution and diluting with 450 μL EMEM.
Compound Treatment: Media was aspirated from the cells and 100 μL of D-PBS (ThermoFisher 14190144) was added and then removed. 100 μL of diluted compound was added to the cells in the place and the cells were incubated at 37° C. and 5% CO2 for 24 hours.
Collection of Conditioned Media: For 3HIB MS detection: 20 μL conditioned media was removed from the cells and was transferred to a labeled replicate 96 well polypropylene assay plate (VWR 62408-946). And the plate was heat sealed and stored at −80° C.
3HIB Derivatization (Generalized SOP): The media collected for 3HIB MS detection was derivatized under the following conditions. Buffer: 0.1M 1-Ethyl-3-(3-dimethylaminopropyl)carbodiimide (EDC) dissolved in 0.1 M 2-(N-morpholino)ethanesulfonic acid ([…]) adjusted to pH 5.6. Buffer prep: weighed 10.6 g MES (Sigma #M-5287) per 500 mL HPLC grade H2O. Stored at 4° C.; 0.1M EDC: Weighed 1.971 g EDC (#E-1769) per 100 mL MES. Adjusted pH to 5.6 with ˜40 drops of 1N NaOH and stored at 4° C. Buffer has a short half-life should be used within two weeks.
Derivatization: To 20 μL sample was added 60 μL 5 uM 3HIB-4C13 internal standard followed by 20 μL EDC in MES and 100 μL MES. The plate was sealed and incubate at 50° C. for […] then centrifuged at 4000 rpm at 6° C. for 10 minutes. LC-MS analysis was then conducted and the data was processed using standard methods.

The target in data set [2] is T1, BCAT1 (Homo sapiens, UniProt P54687).
T1 sequence (P54687 1-386): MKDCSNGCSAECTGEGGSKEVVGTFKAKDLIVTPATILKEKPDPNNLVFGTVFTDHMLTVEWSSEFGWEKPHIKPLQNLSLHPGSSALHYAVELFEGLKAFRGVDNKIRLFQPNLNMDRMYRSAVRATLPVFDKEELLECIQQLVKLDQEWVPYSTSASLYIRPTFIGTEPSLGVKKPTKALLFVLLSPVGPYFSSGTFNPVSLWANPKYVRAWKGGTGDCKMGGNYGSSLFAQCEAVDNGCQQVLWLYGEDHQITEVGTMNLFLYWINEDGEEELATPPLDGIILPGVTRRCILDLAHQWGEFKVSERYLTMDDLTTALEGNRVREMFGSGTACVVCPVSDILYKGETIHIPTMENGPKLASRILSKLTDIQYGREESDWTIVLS
Kind of data set: BCAT1 enzyme inhibition (human), Glutamate Glo luminescence. The data set is classed as biochemical. Summed up: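 BCAT1 enzyme (0.06 ug/ml final) was preincubated with compound (3-0.0001 μM, 0.3% DMSO) for 10 or 60 min at room temperature in 50 mM Tris/0.05% TWEEN-20. The reaction then ran 10 min with 300 μM L-leucine and 250 μM alpha-ketoglutaric acid, was acid-quenched, and glutamate was read by luminescence. IC50 came from a 4-parameter fit, normalized to 10 μM VS558CSA inhibition.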

Data set [3] has as its target T2, BCAT2 (Homo sapiens, UniProt O15382).
T2 sequence (O15382 28-392): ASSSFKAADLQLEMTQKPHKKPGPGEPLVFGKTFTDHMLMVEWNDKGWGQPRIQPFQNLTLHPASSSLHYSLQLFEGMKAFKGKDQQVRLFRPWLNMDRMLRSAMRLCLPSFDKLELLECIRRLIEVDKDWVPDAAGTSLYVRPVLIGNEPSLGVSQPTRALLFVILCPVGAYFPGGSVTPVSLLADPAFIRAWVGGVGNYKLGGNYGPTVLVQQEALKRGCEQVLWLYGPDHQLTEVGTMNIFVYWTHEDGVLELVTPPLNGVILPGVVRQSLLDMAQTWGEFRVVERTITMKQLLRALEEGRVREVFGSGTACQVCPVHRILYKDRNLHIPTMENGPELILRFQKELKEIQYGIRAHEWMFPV
Kind of data set: BCAT2 enzyme inhibition (human). The data set is classed as biochemical. Summed up:
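Cell-free coupled fluorescent assay: human BCATm converts branched-chain amino acids and α-ketoglutarate to L-glutamate, which L-glutamate oxidase and HRP link to resorufin formation from Amplex Red; activity taken as reduced glutamate signal.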

Data set [4] deals with GM00371 cells. Kind of data set: Viability assay (Cell titer glo) in the 3-HIB assay. The data set is classed as cell-based, human. The following applies: 24 hours, read-out: 3HIB INHIBITION IC50 (μM) MEAN GM00371 cells Viablility Assay. In short, it runs like this:
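GM00371 cells (10,000/well, EMEM/15% FBS) were exposed for 24 h at 37 °C to compounds in 1:3 serial dilution from 30 μM top concentration in EMEM. Reference Compound B at 30 μM served as maximal-toxicity control. Viability read as CellTiter-Glo luminescence.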
(Cellular ATP, detected with luciferase, serves as a proxy for viable cell number.)

The test system of data set [5] is Primary human fibroblasts from a patient with propionic acidemia (Coriell #GM00371). Nature of the data set: Cell viability (cell Titer-Glo) of propionic acidemia fibroblasts. The data set is classed as cell-based. The settings on record: FIG. 1. As to the method: (§1) Primary human fibroblasts from a patient with propionic acidemia (Coriell #GM00371) were plated in complete media (EMEM, 15% FBS) in a 96-well plate at 10,000 cells/well and incubated overnight at 37° C. at 5% CO2. Compounds were serially diluted initially in DMSO then into serum-free EMEM media. The cells were then washed with D-PBS before addition of the media containing the diluted compound, and were then incubated at 37° C. at 5% CO2 overnight.
Cell viability was also determined with cell Titer-Glo reagent (Promega) by addition of equal volumes of D-PBS and Cell Titer-Glo reagent to cell wells and following manufacturer's recommendations for detection of luminescence signal.

The test system of data set [6] is propionyl carnitine. Kind of data set: Propionyl carnitine in conditioned media of propionic acidemia fibroblasts. The data set is classed as cell-based, human. The settings on record: 24 hours, increasing concentrations, FIG. 1. On the procedure:
could inhibit levels of the downstream metabolite propionyl carnitine, which is found to be elevated in patients with propionic acidemia, by analyzing propionyl carnitine levels in conditioned media in human fibroblasts from a patient with propionic acidemia treated with a dose response of the compound of the disclosure.
as §1
The conditioned media was removed from cells after 24 hours of compound treatment and was diluted 2× with D3-propionyl carnitine internal standard diluted in MS-grade methanol. Plates were sealed and samples were frozen at −80DGC for more than 30 minutes, followed by thawing at room temperature and centrifugation for 10 minutes at 4000 rpm. The samples were then analyzed for propionyl carnitine by LC-LC/MS using TSQ Vantage using a Kinetex 2.6 μm Biphenyl 2.1×50 mm column with Mobile Phase A of 95% (0.1% Formic acid in Water)+5% Water and Mobile Phase B of 95% McOH+5% (0.1% Formic acid in Water).

Data set [7] in a line: Repetitive treatment: body weight and toxicity signs. The data set is classed as in vivo. The settings on record: mice, 200 mg/kg PO once a day for 9 days and 3-day recovery. As to the method: […]. Animals were maintained on a 12 hour light/dark reverse cycle in a temperature- and humidity-controlled room with access to food and water ad libitum. Before the experiment, animals underwent a 7-day acclimation period. All procedures involving mice were approved by the Institutional Animal Care and Use Committee of the University of Arizona and were conducted in accordance with Principles of Laboratory Animal Care (National Institutes of Health Publication 85-23, revised in 1985).
Animals were grouped based on pair matched body weight and received either vehicle (0.5% HPMC K100+0.1 Tween 80, pH=10.0) or a daily dose of compound (200 mg/kg, PO) for 9 days. From day 1 to day 5, all animals were provided with normal diet. On day 6, the diet was switched to a precursor enriched chow (700% isoleucine, valine and threonine enriched, TD. 140829; Envigo) for half of the animals; the other half were still fed with normal diet. On day 9, blood, bladder urine as well as tissue samples (liver, brain, heart, muscle and kidney) were harvested 4 hours after the last dose. Three mice in each treatment/diet group were retained for a 3-day recovery phase observation. On day 12, blood, bladder urine as well as tissue samples (liver, brain, heart, muscle and kidney) were harvested. […] Body weights were measured daily and any abnormal behavior for toxicity signs was recorded.

In data set [8] the test system is branched chain amino acids (BCAA) in plasma. Kind of data set: Repetitive treatment with BCAT2 inhibitor compound: plasma amino acids. The data set is classed as in vivo. The following applies: mice. As to the method:
Male, C57Black/6J mice (6-7 weeks, Jackson Laboratories, Bar Harbor, Me.) were used in all in vivo experiments. Animals were maintained on a 12 hour light/dark reverse cycle in a temperature- and humidity-controlled room with access to food and water ad libitum. Before the experiment, animals underwent a 7-day acclimation period.
All biological samples were stored in −80° C. until analysis. […] In particular, 20 μL of mouse plasma were precipitated with 180 μL acetonitrile containing 5 μg/ml D8-Valine. Samples were vortexed vigorously and centrifuged to remove precipitated protein. 2 μL of supernatant was injected on a Phenomenex Gemini C18 column (4.6 mm×150 mm, 5 μm particle size) for separation under a linear gradient from 2% ACN to 50% ACN in 10 minutes followed by a 7 minute equilibration with 2% ACN.
Animals were grouped based on pair matched body weight and received either vehicle (0.5% HPMC K100+0.1 Tween 80, pH=10.0) or a daily dose of compound (200 mg/kg, PO) for 9 days. From day 1 to day 5, all animals were provided with normal diet. […] On day 9, blood, bladder urine as well as tissue samples (liver, brain, heart, muscle and kidney) were harvested 4 hours after the last dose. Three mice in each treatment/diet group were retained for a 3-day recovery phase observation. On day 12, blood, bladder urine as well as tissue samples (liver, brain, heart, muscle and kidney) were harvested. During the entire study course (day 1 to day 12), mice were able to access food and water freely. Body weights were measured daily and any abnormal behavior for toxicity signs was recorded.

Setting [9] is: 200 mg/kg PO for 9 days, normal diet, FIG. 4A.
The mark [10] stands for this setting: 200 mg/kg PO, Day 9, precursor-enriched diet, FIG. 4B.

Consider `CNC(=O)c1ccc2c(c1)nc(-c1ncccc1F)n2[C@H]1CCC[C@@H](NC(=O)c2ccc(Br)s2)C1` [Compound 199], for which the 50% inhibitory concentration (IC50) (in general, the concentration that inhibits the measured activity by half) was less than 0.1 µM in data set [1] (Homo sapiens, 24 h); less than 100 nM in data set [2]; less than 100 nM in data set [3].

Regarding `CNC(=O)c1ccc2c(c1)nc(-c1ccccn1)n2[C@@H]1CCC[C@H](NC(=O)c2ccc(Br)s2)C1` [Compound 105], the IC50 in data set [1] (24 hours) lay in the range of 0.1 to 0.5 µM; in data set [4], 0.5 to 1 µM; in data set [2] it was 500 to 1000 nM.

On to `CNC(=O)c1ccc2c(c1)nc(-c1cccs1)n2[C@H]1CCC[C@@H](NC(=O)c2ccc(Br)s2)C1` [Compound 193], for which the 50% inhibitory concentration (IC50) was in the range of 0.1 to 0.5 µM in data set [1] (Homo sapiens, 24 h); 0.5 to 1 µM in data set [4] (Homo sapiens); 500 to 1000 nM in data set [2].

On to `CNC(=O)c1ccc2c(c1)nc(-c1ncccc1F)n2[C@H]1CCC[C@@H](NC(=O)c2ccc(Cl)s2)C1` [Compound 197], for which the IC50 was less than 0.1 µM in data set [1] (Homo sapiens, 24 h); less than 100 nM in data set [2]; less than 100 nM in data set [3].

In the case of `CNC(=O)c1ccc2c(c1)nc(-c1ccccn1)n2C1CCCC(NC(=O)c2ccc(Br)s2)C1` (stereo not drawn) [drawing 84], in data set [5], the “impact on cell viability” value is recorded as “little impact”. Further, the propionyl carnitine levels result in data set [6] was “inhibited”.

Regarding `CNC(=O)c1ccc2c(c1)nc(-c1ccccn1)n2C1CCCC(NC(=O)c2ccc(Br)s2)C1` (stereo not drawn) [drawing 85], the “abnormal behaviors reflecting toxicities” value in data set [7] is “no obvious abnormal behaviors reflecting toxicities”. The body weight entry in data set [7] (FIG. 3A) was “no significant loss”. For the same compound, in data set [8] (setting [9]), the “plasma level of Leu” value is reported as “significantly increased”, the “plasma level of Ser” value is recorded as “not” and the “plasma level of Val” value is “significantly increased”. Moreover, in data set [8] (setting [10]), the “levels of BCAAs in plasma, compound vs vehicle” value is listed as “no significant changes” and the “plasma level of leucine” value is “slight but significant decrease”.

For the compound `CNC(=O)c1ccc2c(c1)nc(-c1ccccn1)n2[C@@H]1CCC[C@H](NC(=O)c2ccc(Br)s2)C1` [Compound 102], the IC50 in data set [1] (24 hours) was 0.5 to 1 µM; in data set [4] (Homo sapiens), 0.5 to 1 µM; in data set [2] it was no less than 1000 nM.

(Values after patent US20220274967A1, “BCAT MODULATION” (Icagen, LLC, priority 2019, published 2022).)
